# Where two headings read alike, the source gives them in different places.
# Legend:
# HIV-1 protease = settings: experimental binding free energy; ligand named by PDB code of its complex; cited from earlier work
# human factor Xa = settings: experimental binding free energy; ligand named by PDB code of its complex; cited from earlier work
# BRD4 = test system: BRD4; parameters: method as in Aldeghi et al. (18); settings: experimental binding free energy; ligand named by PDB code of its complex; ref Aldeghi et al. (18); cited from earlier work
# SARS-CoV-2 M^pro [1] = molecular target: T1, SARS-CoV-2 M^pro (Severe acute respiratory syndrome coronavirus 2, UniProt P0DTD1); assay: biochemical
# SARS-CoV-2 M^pro [2] = molecular target: T1, SARS-CoV-2 M^pro; settings: for UEMM-GBSA: unsigned error |ΔGMM-GBSA − ΔGexp|; for UEMM-PBSA: unsigned error |ΔGMM-PBSA − ΔGexp|
# SARS-CoV-2 M^pro [3] = molecular target: T1, SARS-CoV-2 M^pro
# SARS-CoV-2 M^pro [4] = molecular target: T1, SARS-CoV-2 M^pro; settings: ref [6], [36]; read-out: IC50 (µM), values in the brackets obtained from other published works (converted); cited from earlier work
# norovirus = settings: cited from earlier work
# SARS-CoV-2 = settings: cited from earlier work; for activity in vitro against SARS-CoV-2: molecular targets not reported
# [5] = test system: human ether-a-go-go−related gene (hERG) encoded potassium channel Kv11.1; settings: cited from earlier work
# [6] = test system: vesicular stomatitis virus (VSV); type: cell-based
# SARS-CoV = settings: at 1.0 μM; cited from earlier work
# [7] = test system: microsomal prostaglandin E2 synthase 1 (mPGES-1); settings: cited from earlier work
smiles,measurement,setting,value
O=C(N[C@H]1c2ccccc2C[C@H]1O)[C@@H](C[C@@H](O)[C@@H](OCc1ccccc1)C(=O)N[C@H]1c2ccccc2C[C@H]1O)OCc1ccccc1 [1D4I],∆Gexp,HIV-1 protease,-12.1 kcal/mol
O=C(N[C@H]1c2ccccc2C[C@H]1O)[C@H](OCc1ccccc1)[C@H](O)[C@@H](O)[C@@H](OCc1ccccc1)C(=O)N[C@H]1c2ccccc2C[C@H]1O [1EBY],∆Gexp,HIV-1 protease,-13.2 kcal/mol
CNC(=O)[C@@H](NC(=O)[C@H](OCc1ccccc1)[C@H](O)[C@@H](O)[C@@H](OCc1ccccc1)C(=O)N[C@H]1c2ccccc2C[C@H]1O)C(C)C [1EBZ],∆Gexp,HIV-1 protease,-12.8 kcal/mol
CN1CCN=C1c1cccc(Oc2nc(Oc3cc(C(=N)N)ccc3O)c(F)c(N(C)CC(=O)O)c2F)c1 [1FJS],∆Gexp,human factor Xa,-13.6 kcal/mol
COc1cc(Cl)cc(C(=O)Nc2ccc(Cl)cn2)c1NC(=O)c1scc(CN(C)C2=NCCO2)c1Cl [1MQ6],∆Gexp,human factor Xa,-15.2 kcal/mol
CC(C(=O)N1CCOCC1)N1CCC(NS(=O)(=O)c2cc3ccc(Cl)cc3s2)C1=O (stereo not drawn) [2J34],∆Gexp,human factor Xa,-10.7 kcal/mol
COc1ccc(-n2nc(C(N)=O)c3c2C(=O)N(c2ccc(N4CCCCC4=O)cc2)CC3)cc1 [2P16],∆Gexp,human factor Xa,-13.8 kcal/mol
CC(=O)N[C@@H](C)C(=O)N[C@@H](Cc1ccccc1)[C@H](O)CN(Cc1cccs1)S(=O)(=O)c1cc(F)c(F)cc1F [2QHY],∆Gexp,HIV-1 protease,-10.2 kcal/mol
O=C(Cn1cnc(NC(=O)c2ccc(Cl)s2)n1)Nc1ccc(-n2ccccc2=O)cc1F [2VVV],∆Gexp,human factor Xa,-11.2 kcal/mol
C=C(C)CNC(=O)C1N(C(=O)C(O)C(Cc2ccccc2)NC(=O)COc2c(C)cc(N)cc2C)CSC1(C)C (stereo not drawn) [3A2O],∆Gexp,HIV-1 protease,-12.4 kcal/mol
Cc1sc2c(c1C)C(c1ccc(Cl)cc1)=N[C@@H](CC(=O)OC(C)(C)C)c1nnc(C)n1-2 [3MXF],∆Gexp,BRD4,-9.6 kcal/mol
CCOc1cc(-c2c(C)noc2C)cc(C(C)O)c1 (stereo not drawn) [3SVG],∆Gexp,BRD4,-7.3 kcal/mol
Cc1nnc2n1-c1ccc(Cl)cc1C(c1ccccc1)=NC2 [3U5J],∆Gexp,BRD4,-7.4 kcal/mol
Cc1nnc2n1-c1ccc(Cl)cc1C(c1ccccc1)=NN2C [3U5L],∆Gexp,BRD4,-8.2 kcal/mol
CN1Cc2cc(Br)ccc2NC1=O [4HBV],∆Gexp,BRD4,-6.3 kcal/mol
Cc1noc(C)c1-c1cc(O)cc(C(O)c2ccccc2)c1 (stereo not drawn) [4J0R],∆Gexp,BRD4,-8.8 kcal/mol
COc1cc(OC)c2c(=O)[nH]c(-c3cc(C)c(O)c(C)c3)nc2c1 [4MR3],∆Gexp,BRD4,-9.0 kcal/mol
COc1cc(OC)c2c(=O)[nH]c(-c3cc(C)c(OCCO)c(C)c3)nc2c1 [4MR4],∆Gexp,BRD4,-7.8 kcal/mol
CC(C)CN(CC(O)C(Cc1ccccc1)NC(=O)OC1COC2OCC(F)(F)C12)S(=O)(=O)c1ccc(N)cc1 (stereo not drawn) [4U8W],∆Gexp,HIV-1 protease,-15.3 kcal/mol
Cc1coc(CN(C)C(=O)c2cccc(C(=O)N[C@@H](Cc3ccccc3)[C@H](O)CN(CC(C)C)S(=O)(=O)c3ccc(CO)cc3)c2)n1 [5UPZ],∆Gexp,HIV-1 protease,-12.5 kcal/mol
"COC(=O)N[C@H](C(=O)N[C@@H](Cc1ccccc1)[C@@H](O)CN(Cc1ccc(-c2ccccn2)cc1)NC(=O)[C@@H](NC(=O)OC)C(C)(C)C)C(C)(C)C [Atazanavir, atazanavir]",ΔGexp,SARS-CoV-2 M^pro [1]; calculated from corresponding Ki values,-8.6 kcal/mol
same,Ki,"SARS-CoV-2 M^pro [1]; converted from IC50 based on the assumption of the competitive inhibition without covalent binding, read-out: Ki",0.49 ± 0.02 µM
same,IC50,"SARS-CoV-2 M^pro [1]; substrate concentration 20 µM, 500 nM enzyme, ∼50 values estimated from single-concentration assay, read-out: IC50",7.5 ± 0.3 µM
same,UEMM-GBSA,SARS-CoV-2 M^pro [2],30.6 kcal/mol
same,UEMM-PBSA,SARS-CoV-2 M^pro [2],24.4 kcal/mol
same,UEFEP-ABFE,SARS-CoV-2 M^pro [3],0.6 kcal/mol
same,IC50,SARS-CoV-2 M^pro [4],10 µM
"CCN(CC)CCCC(C)Nc1ccnc2cc(Cl)ccc12 (stereo not drawn) [Chloroquine, chloroquine]",sensitivity of norovirus to treatment,norovirus,hypersensitive
same,UEMM-GBSA,SARS-CoV-2 M^pro [2],24.7 kcal/mol
same,UEMM-PBSA,SARS-CoV-2 M^pro [2],16.1 kcal/mol
same,activity in vitro against SARS-CoV-2,SARS-CoV-2,active in vitro
same,UEFEP-ABFE,SARS-CoV-2 M^pro [3],1.5 kcal/mol
same,IC50,[5],2.5 µM
same,inhibition of VSV,[6],no significant inhibition
same,SARS-CoV replication reduced to,SARS-CoV,53%
"OCCN(CCO)c1nc(N2CCCCC2)c2nc(N(CCO)CCO)nc(N3CCCCC3)c2n1 [DIP, dipyridamole]",inhibition of mPGES-1,[7],weak inhibitor
same,EC50,"SARS-CoV-2; raw antiviral activity data reported separately, read-out: EC50, suppression of SARS-CoV-2 replication",0.1 µM
"CCN(CCO)CCCC(C)Nc1ccnc2cc(Cl)ccc12 (stereo not drawn) [Hydroxychloroquine, hydroxychloroquine]",activity in vitro against SARS-CoV-2,SARS-CoV-2,active in vitro
same,UEFEP-ABFE,SARS-CoV-2 M^pro [3],1.1 kcal/mol
same,IC50,"[5]; read-out: IC50, hERG Kv11.1 block",10.7 µM
same,inhibition of VSV,[6],no significant inhibition
CC(C)(C)NC(=O)[C@@H]1CN(Cc2cccnc2)CCN1C[C@@H](O)C[C@@H](Cc1ccccc1)C(=O)N[C@H]1c2ccccc2C[C@H]1O [Indinavir],activity in vitro against SARS-CoV-2,SARS-CoV-2,active in vitro

# From PMC7959488, “Identify potent SARS-CoV-2 main protease inhibitors via accelerated free energy perturbation-based virtual screening of existing drugs” (Proceedings of the National Academy of Sciences of the …, 2020)
